Results taken from patent publication US11633421B2, “Use of NAD precursors for improving maternal health and/or offspring health” (UNIVERSITY OF IOWA RESEARCH FOUNDATION, priority 2016, dated 2023).

Tests used:
[1] = Maternal weight gain, NR chloride in chow from 12 weeks before mating through weaning; format: in vivo; conditions: female mice, NC+NR vs NC
From the text: Mice are a widely used model of human metabolism because they are capable of recapitulating many aspects of human health. […] Therefore, mice were used in a series of in vivo experiments to evaluate whether maternally supplemented NR has the ability to improve maternal and/or neonatal health and development. Specifically, it was asked whether addition of NR chloride (3 g/kg of chow) to the diet of female mice would alter their health during and after pregnancy and whether this administration would produce any beneficial effects on the pups.
Female C57BL/6N mice were raised in 12 hour light:dark cycles on Teklad 2920X chow (NC). For 12 weeks prior to mating with a single C57BL/6N male, females were on either NC (n=4) or NC+NR (n=4). Females were maintained on the same diet through gestation and weaning, which was at 21 days after birth.

[2] = Pup growth and weanling body composition (post-partum maternal NR); format: in vivo, mice
Protocol: FIG. 15. Maternal NR increases pup growth early in the neonatal period. Neonatal pups body weight from Day 0 to Day 14 (n=5 litter per group). FIGS. 16A-D. 21 day old pups of NR-supplemented mothers are bigger. Males and females were analyzed separately. The order of the bars from left to right are: males of normal chow (NC) mothers (white with light grey outline), followed by males of NR-supplemented mothers (filled light grey), followed by females of NC mothers (white with dark grey outline), followed by females of NR-supplemented mothers (filled dark grey). […] As shown in FIG. 16A-C, 21 day old weanlings of NR-supplemented mothers are larger in overall mass, fat mass and lean mass.

[3] = Pup post-fasting glucose and hepatic glycogen (post-partum maternal NR); format: in vivo, mice
From the text: FIGS. 17A-C. 22 day old pups of NR-supplemented mothers have improved post-fasting glucose homoeostasis with higher gluconeogenic gene expression and higher hepatic glycogen storage. Not only are the offspring of NR-supplemented mothers a bit bigger, they also have better glycemic control. This is due to better gluconeogenic gene expression and higher glycogen storage. The order of the bars from left to right are: males of normal chow (NC) mothers (white with light grey outline), followed by males of NR-supplemented mothers (filled light grey), followed by females of NC mothers (white with dark grey outline), followed by females of NR-supplemented mothers (filled dark grey). Earlier it was shown that supplementation of females during their pregnancy and during the lactation period with NR produced pups with better glycemic control. […] Particularly as NR is not directly transmitted to offspring of NR-supplemented mothers, none of these effects of maternally supplemented NR could have been anticipated.

[4] = Transmission of heavy-atom labeled oral NR into milk; format: in vivo, mice; conditions: oral NR labeled with heavy atoms in nicotinamide and ribose moieties, gavage to lactating mothers
Protocol: FIGS. 9A-B. Orally administered NR is not directly transmitted via milk.
(§1) A series of in vivo murine experiments were performed to evaluate the effects of nicotinamide riboside on milk production. […] As shown in FIGS. 8A-C, the concentration of protein, carbohydrate and fat in the milk of NR-supplemented mothers was normal. Because there is approximately 2-fold more milk produced by NR-supplemented mothers, NR-supplemented mothers transmit more calories to their offspring, which thereby assists maternal weight loss and neonatal development. In FIG. 9A, the concentration of NAD precursor vitamins in the milk from control mothers and NR-supplemented mothers was determined. […] Oral NR was labeled with heavy atoms in the nicotinamide and ribose moieties of NR and this was provided to lactating mothers by gavage.

[5] = NAD precursor vitamins in milk; format: in vivo, mice
Protocol: as §1

[6] = Open field test of offspring; format: in vivo, mice
Protocol: The order of the bars from left to right are: males of normal chow (NC) mothers (white with light grey outline), followed by males of NR-supplemented mothers (filled light grey), followed by females of NC mothers (white with dark grey outline), followed by females of NR-supplemented mothers (filled dark grey). […] These adults were treated identically ever since weaning. The only difference is whether the mother was NR-supplemented for 21 days. They are faster and more adventurous. The order of the bars from left to right are: males of normal chow (NC) mothers (white with light grey outline), followed by males of NR-supplemented mothers (filled light grey), followed by females of NC mothers (white with dark grey outline), followed by females of NR-supplemented mothers (filled dark grey). At 15 days of age, it was observed that the offspring of NR-supplemented mothers were more physically active. In this experiment, the physical activity of male and female offspring of mothers supplemented or not with NR at 15 days of age was quantified. […] At 21 days, the offspring were removed from their mothers and put on normal chow […]. While offspring of NR could have been put on NR chow, we aimed to determine if the 21 day intervention to their mothers was sufficient for a lasting effect on their neurocognitive and/or physical development.

[7] = Brain size and caudate putamen of offspring; format: in vivo, mice
From the text: FIGS. 24A-D. 69 days after their mother's intervention, the female offspring tend to have larger brains […] (FIG. 24A). Pups of NR-supplemented moms show advanced pruning of the caudate putamen at day 22 (FIGS. 24B-C); however, the caudate putamen in pups from NR-supplemented mothers grows to a normal size in adulthood (FIG. 24D). The order of the bars from left to right are: males of normal chow (NC) mothers (white with light grey outline), followed by males of NR-supplemented mothers (filled light grey), followed by females of NC mothers (white with dark grey outline), followed by females of NR-supplemented mothers (filled dark grey). At 91 days, the mice were sacrificed and examined with respect to their brains. In FIG. 24A, it was shown that female mice from NR-supplemented mothers have larger brains in adulthood. We hypothesized that the caudate putamen, which is the motor learning center of the brain, may have developed more rapidly in mice whose mothers had been NR-supplemented either due to the increased quality and/or quantity of milk they received and/or improved maternal care.

[8] = 21 day old weanlings of NR-supplemented mothers
[9] = NR-supplemented vs non-supplemented mothers

Compound: NC(=O)c1ccc[n+]([C@@H]2O[C@H](CO)[C@@H](O)[C@H]2O)c1 [NR, nicotinamide riboside]
- maternal body fat at the time of weaning [1]: tended to have lower body fat
- weight gain from the day of mating to the day of weaning ([1]; NR chloride 3 g/kg of chow): protected from this weight gain
- brain weight of weanlings ([2]; 21 day old females): tend to have larger brain weight
- fat mass of weanlings [2, 8]: larger
- lean mass of weanlings [2, 8]: larger
- overall mass of weanlings [2, 8]: larger
- neonatal size (pup body weight) ([2]; particularly at day 7 and 9): boosts neonatal size
- post-fasting glucose homoeostasis of pups ([3]; 22 day old pups of NR-supplemented mothers): improved
- glycogen stored in liver ([3]; males and females whose mothers were NR-supplemented): stored more glycogen
- labeled species released into milk [4]: only single labeled nicotinamide and no double-labeled NR
- NR concentration in milk [5, 9]: moderately higher
- nicotinamide (Nam) concentration in milk [5, 9]: moderately higher
- NAD precursor vitamins (total B3) transmitted ([5]; concentration coupled with larger milk volume): significantly more
- physical activity in open field test ([6]; 15 days of age, first 5 minutes): much more physically active
- time in the center of the open field test ([6]; 15 days of age, males, middle 5 minute epoch): significant amount of time in the center
- time in the center of open field test ([6]; 70 day-old adult males): less time in the center
- immobile time in open field test ([6]; 70 day-old adults): tendency toward less immobile time
- speed in open field test ([6]; 70 day-old adults): move faster
- distance covered in open field test ([6]; 70 day-old adults, 49 days after mother's intervention): cover more distance
- brain size in adulthood ([7]; 91 days, female mice from NR-supplemented mothers): larger
- caudate putamen in adults ([7]; adult offspring): not affected
- caudate putamen pruning (area of PSD95 staining) ([7]; female weanlings): clearly advanced pruning
- caudate putamen size in weanlings ([7]; weanlings at 21 days): slightly smaller
